# Experimental data published in patent US12552783B2, “Modulators of proteolysis and associated methods of use” (Arvinas Operations, Inc., priority 2018, dated 2026).
# Biological target: KRas (Homo sapiens, UniProt P01116, G12C)
# Assay: KRas degradation in NCI-H2030 cells by Western blot, normalized to GAPDH (data of Table 14)
# Format: cell-based
# Set-up: host or cells: NCI-H2030
# Settings: for Percent Degradation at Indicated Concentration (μM): H2030; for Dmax: NCI-H2030
# In short: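 Both lines are homozygous for KRas G12C and were serum-starved for 24 h before treatment with compound at 0.3, 1 or 3 μM in 0.1% DMSO: 24 h for VHL-based compounds, 72 h for the rest. Western blot of 10 μg lysate gave KRas signal normalized to GAPDH, and percent degradation was expressed relative to the DMSO control.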
Compound,Percent Degradation at Indicated Concentration (μM) (0.3 μM),Percent Degradation at Indicated Concentration (μM) (1 μM),Percent Degradation at Indicated Concentration (μM) (3 μM),Dmax [%],"Percent Degradation at Indicated Concentration (μM): 0.3 (H2030 cells, 0.3 μM)","Percent Degradation at Indicated Concentration (μM): 1 (H2030 cells, 1 μM)","Percent Degradation at Indicated Concentration (μM): 3 (H2030 cells, 3 μM)",Dmax (H2030 cells) [%]
"C=CC(=O)N1CCN(c2nc(NCCC(=O)N(C)CCOCCOc3ccc(-c4csc([C@@H]5CCCN5C(=O)[C@@H](NC(=O)[C@H](C)NC)C5CCCCC5)n4)c4ccccc34)nc3c(F)c(-c4cc(O)cc5ccccc45)c(Cl)cc23)CC1 [compound 271, 3-((4-(4-acryloylpiperazin-1-yl)-6-chloro-8-fluoro-7-(3-hydroxynaphthalen-1-yl)quinazolin-2-yl)amino)-N-(2-(2-((4-(2-((S)-1-((S)-2-cyclohexyl-2-((S)-2-(methylamino)propan-amido)acetyl)pyrrolidin-2-yl)thiazol-4-yl)naphthalen-1-yl)oxy)ethoxy)ethyl)-N-methylpropanamide]",C (Percent Degradation: C ≤ 35),C (Percent Degradation: C ≤ 35),C (Percent Degradation: C ≤ 35),≤ 35,,,,
"Cc1ncsc1-c1ccc([C@H](C)NC(=O)[C@@H]2C[C@@H](O)CN2C(=O)[C@@H](NC(=O)COCC/C=C/C(=O)N2CCN(c3nc(NCCC(=O)N(C)C)nc4c(F)c(-c5cc(O)cc6ccccc56)c(Cl)cc34)CC2)C(C)(C)C)cc1 [compound 363, (2S,4R)-1-((2S)-2-(2-(((E)-5-(4-(6-chloro-2-((3-(dimethylamino)-3-oxopropyl)amino)-8-fluoro-7-(3-hydroxynaphthalen-1-yl)quinazolin-4-yl)piperazin-1-yl)-5-oxopent-3-en-1-yl)oxy)acetamido)-3,3-dimethylbutanoyl)-4-hydroxy-N-((S)-1-(4-(4-methylthiazol-5-yl)phenyl)ethyl)pyrrolidine-2-carboxamide]",C (Percent Degradation: C ≤ 35),C (Percent Degradation: C ≤ 35),C (Percent Degradation: C ≤ 35),≤ 35,,,,
"CCC(=O)N1CCN(c2nc(NCCC(=O)N(C)CCOCCOCCOCCOc3ccc4c(c3)CN(C3CCC(=O)NC3=O)C4=O)nc3c(F)c(-c4cc(O)cc5ccccc45)c(Cl)cc23)CC1 (stereo not shown) [compound 53, 3-((6-chloro-8-fluoro-7-(3-hydroxynaphthalen-1-yl)-4-(4-propionylpiperazin-1-yl)quinazolin-2-yl)amino)-N-(2-(2-(2-(2-((2-(2,6-dioxopiperidin-3-yl)-1-oxoisoindolin-5-yl)oxy)ethoxy)ethoxy)ethoxy)ethyl)-N-methylpropanamide]",,,,,C (C ≤ 35),C (C ≤ 35),C (C ≤ 35),≤ 35
"C=CC(=O)N1CCN(c2nc(NCCC(=O)N(C)CCOCC(=O)N[C@H](C(=O)N3C[C@H](O)C[C@H]3C(=O)N[C@@H](C)c3ccc(-c4scnc4C)cc3)C(C)(C)C)nc3c(F)c(-c4c(O)cccc4F)c(Cl)cc23)CC1 (atropisomer, axis not shown) [compound 206, (2S,4R)-1-((S)-2-(2-(2-(3-(((R)-4-(4-acryloylpiperazin-1-yl)-6-chloro-8-fluoro-7-(2-fluoro-6-hydroxyphenyl)quinazolin-2-yl)amino)-N-methylpropanamido)ethoxy)acetamido)-3,3-dimethylbutanoyl)-4-hydroxy-N-((S)-1-(4-(4-methylthiazol-5-yl)phenyl)ethyl)pyrrolidine-2-carboxamide]",C (Percent Degradation: C ≤ 35),C (Percent Degradation: C ≤ 35),C (Percent Degradation: C ≤ 35),≤ 35,,,,
